Experiment [1] concerns sodium-deficient spontaneously hypertensive rats. Description: Mean arterial pressure in anaesthetized sodium-deficient spontaneously hypertensive rats. Type of experiment: in vivo, rat. The conditions noted are these: intragastral administration; sodium-deficient SHR (furosemide in drinking water 14 days), anaesthetized with Inactin.
The target of experiment [2] is T1, endogenous resin from human plasma (Homo sapiens, UniProt P00797).
T1 construct: endogenous resin from human plasma; from tissue; host or cells: pooled human plasma (EDTA)
T1 sequence (P00797 67-406): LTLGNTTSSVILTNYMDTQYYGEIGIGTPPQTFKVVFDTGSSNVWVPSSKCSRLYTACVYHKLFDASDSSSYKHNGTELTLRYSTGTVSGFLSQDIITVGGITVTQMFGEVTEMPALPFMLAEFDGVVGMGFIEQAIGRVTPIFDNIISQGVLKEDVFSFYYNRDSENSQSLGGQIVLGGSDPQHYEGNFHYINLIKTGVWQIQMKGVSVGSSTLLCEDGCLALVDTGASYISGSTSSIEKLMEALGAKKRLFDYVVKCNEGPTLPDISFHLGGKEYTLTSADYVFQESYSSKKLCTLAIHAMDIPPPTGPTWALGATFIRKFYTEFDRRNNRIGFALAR
Description: In vitro test: inhibition of plasma renin activity (angiotensin I formation, radioimmunoassay). Type of experiment: biochemical. As to the method:
The inhibitory strength of the peptides according to the invention against endogenous resin from human plasma is determined in vitro. Pooled human plasma is obtained, with the addition of ethylenediaminetetraacetic acid (EDTA) as an anticoagulant and is stored at -20° C. The plasma renin activity (PRA) is determined as the rate of formation of angiotensin I from endogenous angiotensinogen and renin after incubation at 37° C. The reaction solution contains 150 μl of plasma, 3 μl of 6.6% strength 8-hydroxyquinoline sulphate solution, 3 μl of 10% strength dimercaprol solution and 144 μl of sodium phosphate buffer (0.2M; 0.1% of EDTA; pH 5.6) with or without the substances according to the invention in various concentrations. The angiotensin I formed per unit time is determined by radioimmunoassay (Sorin Biomedica, Italy). The percentage inhibition of the plasma renin activity is calculated by comparison of the amount of angiotensin I formed here with or without the substances according to the invention.

Experiment [3] deals with spontaneously hypertensive rats. As to the kind of experiment: In vivo test: systolic blood pressure of conscious spontaneously hypertensive rats, indirect tail-cuff measurement. The arrangement: species or system rat. Particulars: conscious SHR; for systolic blood pressure: oral dose of 100 mg/kg. From the text: From the current state of the art, it was not to be expected that the compounds according to the invention have a hypotensive action when administered orally. […] [See Table 1].
The blood pressure of the conscious animals is thereby measured by the customary indirect measurement method on the tail, using an inflatable occlusion cuff and an infra-tone pulse recorder [compare H. Breuninger: Methoden zur unblutigen Messung des Blutdrucks an Kleintieren (Methods of bloodless measurement of the blood pressure on small animals), Arzneimittleforschung 6, 222-225 (1956)]. The substance is administered as a suspension in 1% strength Tylose by means of a stomach tube. The systolic blood pressure is measured before and 1, 2, 4 and 6 hours after administration.

In the case of `CC[C@H](C)[C@H](NC(=O)C[C@H](O)[C@H](Cc1ccc([N+](=O)[O-])cc1)NC(=O)[C@H](Cc1c[nH]cn1)NC(=O)[C@H](Cc1ccccc1)NC(=O)OC(C)(C)C)C(=O)OC` [Example 12, N-tert.-Butoxycarbonyl-phenylalanyl-L-histidyl-4S-amino-3S-hydroxy-5-(4-nitrophenyl)pentanoyl-L-isoleucine methyl ester], in experiment [1], the “mean arterial pressure (in words)” value is on record as “reduces the mean arterial pressure”. The “inhibition of renin activity in vitro (in words)” value in experiment [2] was “inhibit the renin activity in vitro”. In addition, the systolic blood pressure in experiment [3] (0 hours (before administration)) came out at 165.0 mm Hg; in experiment [3] (1 hour after administration), 163.1 mm Hg; in experiment [3] (2 hours after administration) it was 161.8 mm Hg; in experiment [3] (4 hours after administration), 151.8 mm Hg; in experiment [3] (6 hours after administration), 148.5 mm Hg. Also, the “antihypertensive action (in words)” value in experiment [3] (oral administration of 100 mg/kg) is on record as “antihypertensive action is observed”.

The record behind these values is patent publication US4818748A, “Renin inhibitors and aminoacid and aminoaldehyde derivatives” (Bayer Aktiengesellschaft, priority 1986, dated 1989).
